According to patent publication US12594267B2, “Capsid inhibitors for the treatment of HIV” (Gilead Sciences, Inc., priority 2018, dated 2026):

Experiment: PK after subcutaneous administration of solutions in dogs
Type: in vivo, Beagle dog
Conditions: for Plasma concentration: SC 12 mg/kg, 300 mg/mL (22.6% water/50% PEG 300/1.1% NaOH/26.3% Formula (Ia))
Protocol: Formulations containing the compound of Formula (Ia) were prepared as aqueous solutions or oral formulations and administered subcutaneously to rats, dogs, cynomolgus monkey, and/or rhesus monkey.
A solution of the compound of Formula (Ia) in 10% ethanol, 13% water, and 77% PEG 200 (400 mg/mL) was prepared. The solution was administered subcutaneously to dogs at a dose of 12 mg/kg and rats at a dose of 50 mg/kg and the pharmacokinetic (PK) profile was determined. […] In both species, plasma concentrations of the compound of Formula (Ia) were maintained above the target trough concentration of 20 nM (corresponding to an IQ of 5) for at least 84 days (12 weeks).
A solution of the compound of Formula (Ia) in 15% water and 85.0 PEG 300 (400 mg/mL) was prepared. The solution was administered subcutaneously to male beagle dogs at a dose level of 12 mg/kg and dose volume of […] and the pharmacokinetic (PK) profile was determined.
A solution of the compound of Formula (a) sodium salt in water and 300 (300 mg/mL) was prepared that contained 22.6% water/50% PEG 300/1.1% NaOH/26.3% Formula (Ia). The solution was administered subcutaneously to male beagle dogs at a dose level of 12 mg/kg and dose volume of […] and the pharmacokinetic (PK) profile was determined.
A 300 mg/ml solution of a compound of Formula (Ia) having 9.8 w/w % water, 65.0 w/w % PEG 300, and 25.2 w/w % of the compound of Formula (Ia) was prepared. The solution was administered subcutaneously to rats at a dose of 50 mg/kg and to dogs at a dose of 12 mg/kg and the pharmacokinetic (PK) profile was determined. […] In the rat, plasma concentrations of the compound of Formula (Ia) were maintained above the target trough concentration of 20 nM for at least 168 days (24 weeks). In the dog, plasma concentrations of the compound of Formula (Ia) were maintained above the target trough concentration of 20 nM for at least 84 days (12 weeks).
(§1) A 150 mg/ml solution of a compound of Formula (Ia) having 27.92 w/w % water, 58.04 w/w % PEG 300, 13.47 w/w % of a compound of Formula (Ia), and 1.1 w/w % NaOH was prepared. The solution was administered subcutaneously to rats at a dose of 50 mg/kg and to dogs at a dose of 12 mg/kg and the pharmacokinetic (PK) profile was determined. […] In the rat, plasma concentrations of the compound of Formula (Ia) were maintained above the target trough concentration of 20 nM for at least 126 days (18 weeks). In the dog, plasma concentrations of the compound of Formula (Ia) were maintained above the target trough concentration of 20 nM for at least 56 days (8 weeks).
as §1, with “300” for “150”, “23.2” for “27.92”, “50.0” for “58.04”, “25.7” for “13.47”
A 50 mg/ml solution of a compound of Formula (Ia) having 30.07 w/w % water, 64.40 w/w % PEG 300, 4.68 w/w % of a sodium salt of the compound of Formula (Ia), and 0.85 w/w % poloxamer 188 was prepared. The solution was administered subcutaneously to rats at a dose of 50 mg/kg and to dogs at a dose of 6 mg/kg and the pharmacokinetic (PK) profile was determined. […] In the rat, plasma concentrations of the compound of Formula (Ia) were maintained above the target trough concentration of 20 nM for at least 28 days (4 weeks). In the dog, plasma concentrations of the compound of Formula (Ia) were maintained above the target trough concentration of 20 nM for at least 14 days (2 weeks). […]

[1] = male beagle dog, single SC 12 mg/kg, 300 mg/mL, 50, 22.6, 1.1, 26.3 w/w % PEG300:Water:NaOH:Formula (Ia), mean ± SD, n=3

CC(C)(C#Cc1ccc(-c2ccc(Cl)c3c([N-]S(C)(=O)=O)nn(CC(F)(F)F)c23)c([C@H](Cc2cc(F)cc(F)c2)NC(=O)Cn2nc(C(F)(F)F)c3c2C(F)(F)[C@@H]2C[C@H]32)n1)S(C)(=O)=O.[Na+] [Formula (Ia) sodium salt]
Plasma concentration (dog #1, 0 h): BLQ | Plasma concentration (dog #1, 1.0 h): 14.0 nM | Plasma concentration (dog #1, 3.0 h): 26.0 nM | Plasma concentration (dog #1, 8.0 h): 56.3 nM | Plasma concentration (dog #1, 24 h): 57.1 nM | Plasma concentration (dog #1, 48 h): 71.1 nM | Plasma concentration (dog #1, 72 h): 51.5 nM | Plasma concentration (dog #1, 96 h): 46.4 nM | Plasma concentration (dog #1, 168 h): 47.7 nM | Plasma concentration (dog #2, 0 h): BLQ | Plasma concentration (dog #2, 1.0 h): 7.2 nM | Plasma concentration (dog #2, 3.0 h): 17.0 nM | Plasma concentration (dog #2, 8.0 h): 25.8 nM | Plasma concentration (dog #2, 24 h): 25.4 nM | Plasma concentration (dog #2, 48 h): 29.0 nM | Plasma concentration (dog #2, 72 h): 16.2 nM | Plasma concentration (dog #2, 96 h): 14.0 nM | Plasma concentration (dog #2, 168 h): 13.6 nM | Plasma concentration (dog #3, 0 h): BLQ | Plasma concentration (dog #3, 1.0 h): 8.6 nM | Plasma concentration (dog #3, 3.0 h): 16.8 nM | Plasma concentration (dog #3, 8.0 h): 32.1 nM | Plasma concentration (dog #3, 24 h): 54.5 nM | Plasma concentration (dog #3, 48 h): 57.8 nM | Plasma concentration (dog #3, 72 h): 58.0 nM | Plasma concentration (dog #3, 96 h): 59.2 nM | Plasma concentration (dog #3, 168 h): 43.1 nM | Plasma concentration (dog mean, n=3, 1.0 h): 10.0 nM | Plasma concentration (dog mean, n=3, 3.0 h): 19.9 nM | Plasma concentration (dog mean, n=3, 8.0 h): 38.1 nM | Plasma concentration (dog mean, n=3, 24 h): 45.7 nM | Plasma concentration (dog mean, n=3, 48 h): 52.6 nM | Plasma concentration (dog mean, n=3, 72 h): 41.9 nM | Plasma concentration (dog mean, n=3, 96 h): 39.9 nM | Plasma concentration (dog mean, n=3, 168 h): 34.8 nM | AUC0-24h [1]: 0.85 ± 0.31 µM·h | AUC0-48h [1]: 2.03 ± 0.76 µM·h | AUC0-72h [1]: 3.16 ± 1.27 µM·h | AUC0-168h [1]: 6.83 ± 3.24 µM·h
